Earlier results, collected in PMC11998001, “Towards P2X4 Positron Emission Tomography Tracing” (Journal of Medicinal Chemistry, 2025).

What was measured:
tactile allodynia = test system: tactile allodynia; design: method as in PMID 33125712
[1] = for blood-brain barrier (BBB) permeation of radioligand (in words): in vivo, 18F-radiolabeled form
[2] = design: method as in PMID 33125712
[3] = for MLM stability: mouse, microsomes, 1.5 h
[4] = test system: NLRP3 Inflammasome in macrophages; design: method as in PMID 39805099
[5] = pH 7.4

Fc1ccc([C@@H]2CCNC[C@H]2COc2ccc3c(c2)OCO3)cc1 [Paroxetine]
effect on tactile allodynia (in words) (tactile allodynia): reverse tactile allodynia

O=C(OCc1ccccc1)N1c2ccccc2Oc2ccccc21 [PSB-12054]
IC50 (hP2X4R; representative P2X4 antagonists, Figure 2): 190 nM

O=C1CN=C(c2cccc(Br)c2)c2oc3ccccc3c2N1 [5-BDBD]
water solubility (in words): low water solubility

O=C1CC(=O)N(c2cccc(-c3noc(=S)[nH]3)c2)c2ccc3ccccc3c2N1 [NP-1815-PX]
water solubility (in words): high potency and water solubility

Cc1cc([18F])ccc1CS(=O)(=O)Nc1ccc(N2C(=O)CC(=O)Nc3c2ccc2ccccc32)cc1 [Erlitz [^18F]64]
in vivo metabolism of radioligand (in words) [1]: rapid, in vivo metabolism
blood-brain barrier (BBB) permeation of radioligand (in words) [1]: almost no blood–brain barrier (BBB) permeation

NS(=O)(=O)c1cc(NC(=O)Cc2ccccc2)ccc1Oc1cccc(Cl)c1 [BAY-1797]
water solubility (in words): high water solubility
blood-brain barrier permeation (in words) [2]: does not permeate the blood–brain barrier

Cc1cc(F)ccc1S(=O)(=O)Nc1ccc(N2C(=O)CC(=O)Nc3c2ccc2ccccc32)cc1 [Erlitz 44]
stability in mouse microsomes (in words) [3]: higher stability in mouse microsomes
MLM stability [3]: 93%
NLRP3 inflammasome activation / interleukin-1β release (in words) [4]: able to block NLRP3 inflammasome activation
logD7.4 [5]: 3.59

Cc1ccc(S(=O)(=O)N2c3ccccc3Oc3ccccc32)cc1 [PSB-12062]
water solubility (in words): more water-soluble than the first

Cc1cc([18F])ccc1S(=O)(=O)Nc1ccc(N2C(=O)CC(=O)Nc3c2ccc2ccccc32)cc1 [Erlitz [^18F]44]
in vivo metabolism of radioligand (in words) [1]: rapid, in vivo metabolism
blood-brain barrier (BBB) permeation of radioligand (in words) [1]: almost no blood–brain barrier (BBB) permeation

Cc1cc(F)ccc1CS(=O)(=O)Nc1ccc(N2C(=O)CC(=O)Nc3c2ccc2ccccc32)cc1 [Erlitz 64]
MLM stability [3]: 64%
NLRP3 inflammasome activation / interleukin-1β release (in words) [4]: able to block NLRP3 inflammasome activation
logD7.4 [5]: 3.68

CNCC[C@H](Oc1cccc2ccccc12)c1cccs1 [Duloxetine]
effect on tactile allodynia (in words) (tactile allodynia): reverse tactile allodynia

CC(C)c1cc(Br)c(NC(=O)Nc2cccnc2)c(Br)c1 [BX-430]
antagonist potency at the hP2X4 receptor (in words) (hP2X4R; allosteric antagonist): submicromolar
